Experimental data as given in PMC5146859, “Phase 1/2 study of pacritinib, a next generation JAK2/FLT3 inhibitor, in myelofibrosis or other myeloid malignancies” (Journal of Hematology & Oncology, 2016).

Test system: patients with advanced myeloid malignancies
Assay: Phase 1 safety: adverse events (NCIC-CTCAE version 3.0)
Type: in vivo, human
Method: At screening/baseline, patients underwent a medical history, physical examination, vital sign assessment, ECOG PS assessment, electrocardiogram, and assessment of hematologic parameters and blood chemistry. Hematology/blood chemistry, physical examinations, and vital sign assessments were performed throughout treatment. Toxicity was assessed using the National Cancer Institute Common Terminology Criteria for Adverse Events (NCIC-CTCAE), version 3.0, with relationship to treatment assigned by the investigator and were recorded from the first dose of pacritinib until 30 days after the last dose. Bone marrow biopsy and/or aspirate samples were drawn at baseline, on day 1 of cycle 4 and cycle 10, as clinically indicated, and at the termination visit. Disease response and progression were determined using the relevant International Working Group (IWG) criteria.
The efficacy-evaluable population included those patients with a baseline and corresponding follow-up value. The safety population included all enrolled patients who received ≥1 dose of pacritinib.

## C1=C/COCc2cc(ccc2OCCN2CCCC2)Nc2nccc(n2)-c2cccc(c2)COC/1 [pacritinib, 11-(2-pyrrolidin-1-yl-ethoxy)-14,19-dioxa-5,7,26-triaza-tetracyclo[19.3.1.1(2,6). 1(8,12)]heptacosa-1(25),2(26),3,5,8,10,12(27),16,21,23-decaene]
Phase 1
  Grade 4 gastrointestinal AEs: No grade 4 gastrointestinal AEs occurred
  Relation of fatal AEs to treatment: None of the AEs were considered to be related to treatment
Phase 1, 100 mg, n = 3
  Treatment-emergent AE: Abdominal distension: 0 n (%)
  Treatment-emergent AE: Abdominal pain: 1 (33.3) n (%)
  Treatment-emergent AE: Anemia: 0 n (%)
  Treatment-emergent AE: Any AE: 3 (100.0) n (%)
  Treatment-emergent AE: Asthenia: 2 (66.7) n (%)
  Treatment-emergent AE: Back pain: 1 (33.3) n (%)
  Treatment-emergent AE: Cardiac murmur: 1 (33.3) n (%)
  Treatment-emergent AE: Chills: 0 n (%)
  Treatment-emergent AE: Constipation: 2 (66.7) n (%)
  Treatment-emergent AE: Cough: 1 (33.3) n (%)
  Treatment-emergent AE: Decreased appetite: 2 (66.7) n (%)
  Treatment-emergent AE: Dehydration: 0 n (%)
  Treatment-emergent AE: Diarrhea: 2 (66.7) n (%)
  Treatment-emergent AE: Dizziness: 0 n (%)
  Treatment-emergent AE: Dyspnea: 2 (66.7) n (%)
  Treatment-emergent AE: Edema peripheral: 2 (66.7) n (%)
  Treatment-emergent AE: Epistaxis: 2 (66.7) n (%)
  Treatment-emergent AE: Fatigue: 1 (33.3) n (%)
  Treatment-emergent AE: Hyperbilirubinemia: 1 (33.3) n (%)
  Treatment-emergent AE: Hyperuricemia: 1 (33.3) n (%)
  Treatment-emergent AE: Insomnia: 1 (33.3) n (%)
  Treatment-emergent AE: Nausea: 0 n (%)
  Treatment-emergent AE: Neutropenia: 1 (33.3) n (%)
  Treatment-emergent AE: Night sweats: 1 (33.3) n (%)
  Treatment-emergent AE: Pain in extremity: 3 (100.0) n (%)
  Treatment-emergent AE: Petechiae: 2 (66.7) n (%)
  Treatment-emergent AE: Pyrexia: 1 (33.3) n (%)
  Treatment-emergent AE: Skin lesion: 0 n (%)
  Treatment-emergent AE: Thrombocytopenia: 1 (33.3) n (%)
  Treatment-emergent AE: Upper respiratory tract infection: 0 n (%)
  Treatment-emergent AE: Vomiting: 0 n (%)
Phase 1, 150 mg, n = 6
  Treatment-emergent AE: Abdominal distension: 0 n (%)
  Treatment-emergent AE: Abdominal pain: 1 (16.7) n (%)
  Treatment-emergent AE: Anemia: 1 (16.7) n (%)
  Treatment-emergent AE: Any AE: 6 (100.0) n (%)
  Treatment-emergent AE: Asthenia: 2 (33.3) n (%)
  Treatment-emergent AE: Back pain: 2 (33.3) n (%)
  Treatment-emergent AE: Cardiac murmur: 0 n (%)
  Treatment-emergent AE: Chills: 2 (33.3) n (%)
  Treatment-emergent AE: Constipation: 2 (33.3) n (%)
  Treatment-emergent AE: Cough: 1 (16.7) n (%)
  Treatment-emergent AE: Decreased appetite: 2 (33.3) n (%)
  Treatment-emergent AE: Dehydration: 1 (16.7) n (%)
  Treatment-emergent AE: Diarrhea: 2 (33.3) n (%)
  Treatment-emergent AE: Dizziness: 0 n (%)
  Treatment-emergent AE: Dyspnea: 1 (16.7) n (%)
  Treatment-emergent AE: Edema peripheral: 2 (33.3) n (%)
  Treatment-emergent AE: Epistaxis: 1 (16.7) n (%)
  Treatment-emergent AE: Fatigue: 1 (16.7) n (%)
  Treatment-emergent AE: Hyperbilirubinemia: 1 (16.7) n (%)
  Treatment-emergent AE: Hyperuricemia: 1 (16.7) n (%)
  Treatment-emergent AE: Insomnia: 1 (16.7) n (%)
  Treatment-emergent AE: Nausea: 1 (16.7) n (%)
  Treatment-emergent AE: Neutropenia: 2 (33.3) n (%)
  Treatment-emergent AE: Night sweats: 0 n (%)
  Treatment-emergent AE: Pain in extremity: 0 n (%)
  Treatment-emergent AE: Petechiae: 2 (33.3) n (%)
  Treatment-emergent AE: Pyrexia: 2 (33.3) n (%)
  Treatment-emergent AE: Skin lesion: 4 (66.7) n (%)
  Treatment-emergent AE: Thrombocytopenia: 2 (33.3) n (%)
  Treatment-emergent AE: Upper respiratory tract infection: 2 (33.3) n (%)
  Treatment-emergent AE: Vomiting: 1 (16.7) n (%)
Phase 1, 200 mg, n = 9
  Treatment-emergent AE: Abdominal distension: 2 (22.2) n (%)
  Treatment-emergent AE: Abdominal pain: 1 (11.1) n (%)
  Treatment-emergent AE: Anemia: 1 (11.1) n (%)
  Treatment-emergent AE: Any AE: 9 (100.0) n (%)
  Treatment-emergent AE: Asthenia: 1 (11.1) n (%)
  Treatment-emergent AE: Back pain: 0 n (%)
  Treatment-emergent AE: Cardiac murmur: 1 (11.1) n (%)
  Treatment-emergent AE: Chills: 0 n (%)
  Treatment-emergent AE: Constipation: 2 (22.2) n (%)
  Treatment-emergent AE: Cough: 1 (11.1) n (%)
  Treatment-emergent AE: Decreased appetite: 0 n (%)
